Where no end group is shown, it is not given here. FAM = 5-carboxyfluorescein (5-FAM), fluorescent label attached at the amino terminus
Experiments:
[1] = system: hepatocytes isolated from ob/ob mice; format: cell-based, mouse; details: for specificity of intracellular transport: distribution versus pattern of mitotracker: Ob/Ob hepatocytes, 18 hours, 1 microM FAM peptide, 1 microM Mitotracker, 25 mM glucose
Method: GLP-1(28-36)amide (FIAWLVKGRamide (SEQ ID NO:1) and the GLP-1(28-37) Arg-34 glycine extended (FIAWLVRGRG (SEQ ID NO:4)) peptides were prepared by solid phase synthesis and purified by sequential HPLC to >98% single component homogeneity. Verification of the peptides was done by both amino acid composition analysis and by mass spectroscopy. Fluorescent-labeled GLP-1(28-36)amide was prepared with the green fluorescence compound, 5-carboxyfluorescein (5-FAM, fluorescein amidite) and added to hepatocytes isolated from the liver of an ob/ob mouse along with Mitotracker, a specific red fluorochrome mitochondrial marker from Molecular Probes (AnaSpec, Fremont Calif.). The mitotracker compound used requires oxidation to develop fluorescence emission and fluoresces only if cells are viable and actively respiring. The oxidized red fluorochrome stains mitochondria of live and poorly respiring cells (RedCMXRos #7512) and the reduced red fluorochrome stains only actively respiring cells (Red CM-H2XRos #7513).
Mitochondrial localization was evaluated as follows, Hepatocytes were isolated from ob/ob mice and diet-induced obese (DIO) mice and plated overnight on 4 well glass slides (NUNC, Inc., IL) in maintenance medium (12), Next day cells were treated with 10 microM PAM-labeled GLP-1 (28-36)amide peptide (FAM-FIAWLVKGRamide (SEQ ID NO:1)) and 50 nM MitoTracker Red CM-H2Ros for 5 minutes in no dye, no PBS, 5 mM Glucose DMEM medium. Cells were washed with the same medium and images were taken 15 minutes later using Nikon Diaphot 300 inverted microscope SPOT RT camera and SPOT 3.3.1 software (Diagnostic Instruments, Inc., MI).
Whether intracellular transport of FAM-GLP-1(28-36)amide is specific for […] was evaluated in hepatocytes isolated from Ob/Ob mice and treated for 18 hours with 1 microM Mitotracker Red CM-H2XRos and 1 microM of TAM labeled GLP-1 (28-36) peptide or irrelevant peptide controls: synapsin I-derived petide (FAM-LRRRISDANFamide (SEQ NO:13)), AnaSpec Cat #61756; IP3R-derived peptide (FAM-GRRESLTSFGamide (SEQ ID NO:14)), AnaSpec cat. #61731; or angiotensin I peptide (FAM-DRVYIHPFHL (SEQ ID NO:15)), AnaSpec cat. #61185, in 25 mM glucose maintenance medium. Irrelevant peptides were obtained from AnaSpec, Fremont, Calif. Celts were washed with 25 mM glucose Krebs-Ringer buffer. Images were taken using Nikon Diaphot 300 inverted microscope SPOT RT camera and SPOT 3.3.1 software (Diagnostic Instruments, Inc., MI).

[2] = system: isolated mouse hepatocytes
[3] = mouse, in vivo
[4] = system: GLP-1 receptor
[5] = mouse, in vivo; remark: listed apart in the source

FAM-DRVYIHPFHL ({FAM}-DRVYIHPFHL) [angiotensin I peptide, irrelevant peptide control, AnaSpec cat. #61185]
specificity of intracellular transport: distribution versus pattern of mitotracker [1]: do not distribute in hepatocytes with the pattern of distribution of mitotracker

FAM-FIAWLVKGRamide ({FAM}-FIAWLVKGR-NH2; UniProt P01275 119-127, looked up, fragment) [FAM-GLP-1(28-36)amide, GLP-1(28-36)amide labeled at the amino-terminus with 5-carboxyfluorescein (FAM)]
specificity of intracellular transport: distribution versus pattern of mitotracker [1]: appears to be specific for GLP-1(28-36)amide

FAM-GLP-1: fluorescence-labeled GLP-1
binding to the surface of isolated mouse hepatocytes [2]: no binding

FAM-GRRESLTSFGamide ({FAM}-GRRESLTSFG-NH2) [IP3R-derived peptide, irrelevant peptide control, AnaSpec cat. #61731]
specificity of intracellular transport: distribution versus pattern of mitotracker [1]: do not distribute in hepatocytes with the pattern of distribution of mitotracker

FAM-LRRRISDANFamide [synapsin I-derived petide]
specificity of intracellular transport: distribution versus pattern of mitotracker [1]: do not distribute in hepatocytes with the pattern of distribution of mitotracker

FAM-glucagon: FAM-labeled control hormone known to have receptors on hepatocytes
binding to the surface of isolated mouse hepatocytes [2]: readily binds to the surface of hepatocytes

FIAWLVKGR-NH2 [GLP-1(28-36)amide, FIAWLVKGRamide]
time to enter stressed hepatocytes [1]: ≤ 15 min
MCR of the peptide [3]: 40 to 50 mL/min
mechanism of transport into hepatocytes [4]: occurs by GLP-1 receptor-independent mechanisms
activities of the mice [5]: no observable change in the activities
